The source of these data is US6458951B2, “Pyrazolopyrimidinone cGMP PDE5 inhibitors for the treatment of sexual dysfunction” (Pfizer Inc, priority 1998, dated 2002).

Data set [1] deals with cGMP PDE5 (UniProt O76074). The data set is described as follows: Phosphodiesterase (PDE) inhibitory activity, in vitro, cGMP PDE5. It is filed as biochemical, human or rabbit. To be noted: in vitro activity as inhibitors of cGMP PDE5. How it is done: In vitro PDE inhibitory activities against cyclic guanosine 3′,5′-monophosphate (cGMP) and cyclic adenosine 3′,5′-monophosphate (cAMP) phosphodiesterases were determined by measurement of their IC50 values (the concentration of compound required for 50% inhibition of enzyme activity).
The required PDE enzymes were isolated from a variety of sources, including human corpus cavernosum, human and rabbit platelets, human cardiac ventricle, human skeletal muscle and bovine retina, essentially by the method of W. J. Thompson and M. M. Appleman (Biochem., 1971, 10, 311). In particular, the cGMP-specific PDE (PDE5) and the cGMP-inhibited cAMP PDE (PDE3) were obtained from human corpus cavernosum tissue, human platelets or rabbit platelets; the cGMP-stimulated PDE (PDE2) was obtained from human corpus cavernosum; the calcium/calmodulin (Ca/CAM)-dependent PDE (PDE1) from human cardiac ventricle; the cAMP-specific PDE (PDE4) from human skeletal muscle; and the photoreceptor PDE (PDE6) from bovine retina.
Assays were performed using a modification of the “batch” method of W. J. Thompson et al. (Biochem., 1979, 18, 5228).

In the case of `CCc1c2nc(-c3cc(S(=O)(=O)N4CCN(CC)CC4)cnc3OCCCOC)[nH]c(=O)c2nn1Cc1ccccn1` [Example 11, 3-Ethyl-5-[5-(4-ethylpiperazin-1-ylsulphonyl)-2-(3-methoxyprop-1-oxy)-pyridin-3-yl]-2-(pyridin-2-yl)methyl-2,6-dihydro-7H-pyrazolo[4,3-d]pyrimidin-7-one], half-maximal inhibition in data set [1] (IC50) was put at 10 nM.
For the compound `CCc1c2nc(-c3cc(S(=O)(=O)N4CCN(CC)CC4)cnc3OCCOC)[nH]c(=O)c2nn1Cc1ccccn1` (hydrate or solvate) [Example 4, 3-Ethyl-5-[5-(4-ethylpiperazin-1-ylsulphonyl)-2-(2-methoxyethoxy)pyridin-3-yl]-2-(Pyridin-2-yl)methyl-2,6-dihydro-7H-pyrazolo[4,3-d]pyrimidin-7-one], the melting point (commonly the temperature, or range, at which the solid turns liquid) is 139 to 140 °C.
For the compound `CCc1c2nc(-c3cc(S(=O)(=O)N4CCN(CC)CC4)cnc3O[C@H](C)[C@@H](C)OC)[nH]c(=O)c2nn1C` [Example 98, 3-Ethyl-5-[5-(4-ethylpiperazin-1-ylsulphonyl)-2-(2-(R)-methoxy-1-(R)-methylpropoxy)pyridin-3-yl]-2-methyl-2,6-dihydro-7H-pyrazolo[4,3-d]pyrimidin-7-one], in data set [1], the midpoint of inhibition, the IC50, lay at 7 nM.
Same read-out and setting: for `CCc1c2nc(-c3cc(S(=O)(=O)N4CCN(CC)CC4)cnc3O[C@@H]3CCOC3)[nH]c(=O)c2nn1Cc1ccccn1` [Example 18, 3-Ethyl-5-[5-(4-ethylpiperazin-1-ylsulphonyl)-2-(tetrahydrofuran-3(R)-yloxy)pyridin-3-yl]-2-(pyridin-2-yl)methyl-2,6-dihydro-7H-pyrazolo[4,3-d]pyrimidin-7-one] the value was 8.9 nM; for `CCCc1c2nc(-c3cc(S(=O)(=O)N4CCN(CC)CC4)cnc3OCCOCC)[nH]c(=O)c2nn1Cc1ccccn1` [Example 10, 5-[2-(2-Ethoxyethoxy)-5-(4-ethylpiperazin-1-ylsulphonyl)pyridin-3-yl]-3-n-propyl-2-(pyridin-2-yl)methyl-2,6-dihydro-7H-pyrazolo[4,3-d]pyrimidin-7-one], 10.1 nM; for `CCCc1nn(Cc2ncccn2)c2c(=O)[nH]c(-c3cc(S(=O)(=O)N4CCN(CC)CC4)cnc3OCCOC)nc12` [Example 48, 5-[5-(4-Ethylpiperazin-1-ylsulphonyl)-2-(2-methoxyethoxy)pyridin-3-yl]-3-n-propyl-1-(pyrimidin-2-yl)methyl-1,6-dihydro-7H-pyrazolo[4,3-d]pyrimidin-7-one], 6.9 nM.
Same read-out and setting: for `CCc1nn(Cc2nccn2C)c2c(=O)[nH]c(-c3cc(S(=O)(=O)N4CCN(CC)CC4)cnc3OCCOC)nc12` [Example 46, 3-Ethyl-5-[5-(4-ethylpiperazin-1-ylsulphonyl)-2-(2-methoxyethoxy)pyridin-3-yl]-1-(1-methylimidazol-2-yl)methyl-1,6-dihydro-7H-pyrazolo[4,3-d]pyrimidin-7-one] the value was 8.1 nM; for `CCCc1c2nc(-c3cc(S(=O)(=O)N4CCN(CC)CC4)cnc3OCC)[nH]c(=O)c2nn1Cc1ncccn1` [Example 43b, 5-[2-Ethoxy-5-(4-ethylpiperazin-1-ylsulphonyl)pyridin-3-yl]-3-n-propyl-2-(pyrimidin-2-yl)methyl-2,6-dihydro-7H-pyrazolo[4,3-d]pyrimidin-7-one], 3.6 nM; for `CCCc1nn(C)c2c(=O)[nH]c(-c3cc(S(=O)(=O)N4CCN(CC)CC4)cnc3OCc3ccccn3)nc12` [Example 127, 5-{5-(4-Ethylpiperazin-1-ylsulphonyl)-2-[(pyridin-2-yl)methoxy]pyridin-3-yl}-1-methyl-3-n-propyl-1,6-dihydro-7H-pyrazolo[4,3-d]pyrimidin-7-one], 7.3 nM.
Same read-out and setting: for `CCc1c2nc(-c3cc(S(=O)(=O)N4CCN(CC)CC4)cnc3OCc3ccccn3)[nH]c(=O)c2nn1C` [Example 99, 3-Ethyl-5-[5-(4-ethylpiperazin-1-ylsulphonyl)-2-(pyridin-2-yl)methoxypyridin-3-yl]-2-methyl-2,6-dihydro-7H-pyrazolo[4,3-d]pyrimidin-7-one] the value was 5.7 nM; for `CCc1c2nc(-c3cc(S(=O)(=O)N4CCN(CC)CC4)cnc3N3CCCC3)[nH]c(=O)c2nn1Cc1ccccn1` [Example 153], 7.2 nM.
